Source: patent USRE38132E1, “Phenylpyrrolidines, phenylimidazolidines,3-phenyl-1,3-oxizolidines and 3-phenyl-1,3-thiazolidines and their use in the treatment of inflammatory disease” (Boehringer Ingelheim Pharmaceuticals, Inc., priority 1997, dated 2003)
Where two headings read alike, the source gives them in different places.

Tests used:
[1] = target: T1, interaction of ICAM-1 with the Leukointegrin CD18/CD11a (LFA-1) (Homo sapiens, UniProt P05107+P20701); test: Assay to determine inhibition of LFA-1 binding to ICAM-1 (immunopurified LFA-1 on plate-bound sICAM-1, ELISA readout)
T1 construct: endogenous in cells; sICAM-1: made in house, secreted from transfected CHO DUX cells

[2] = system: cell bound form of LFA-1 (CD18, CD11a) with ICAM-1, SKW3 cells; test: Inhibition of SKW3 cell binding to ICAM-1 (PMA-stimulated); format: cell-based, human; settings: Homo sapiens, read-out: Assay to Detect SKW3 Cells Binding to ICAM IC50
Outline: (§1)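 Plates coated with sICAM-1 (40 μg/mL) or fibronectin (100 μg/mL) for 1 h; SKW3 cells in RPMI/15% FBS activated with PMA (50 μg/mL final) added with compound, 2 h at 37° C. Unbound cells washed off; value is concentration (μM) giving 50% binding inhibition.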

[3] = system: cell bound fibronectin receptor (VLA4) with fibronectin, SKW3 cells; test: Inhibition of SKW3 cell binding to fibronectin (selectivity counter-assay); format: cell-based, human; settings: for IC50: read-out: Assay to Detect SKW3 Cells Binding to FIBRONECTIN IC50
Outline: as §1

[4] = system: LFA-1 dependent aggregation of JY cells; test: JY cell homotypic aggregation assay (PMA-stimulated); format: cell-based, human
Outline: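 JY cells (2·10^5 cells/well) in RPMI 1640 with 10% FCS incubated with test compound and […]; cells settle spontaneously and aggregation is scored at various time points. Values are concentrations (μM) giving 50% inhibition of binding.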

[5] = system: human MLR, peripheral blood mononuclear cells; test: Inhibition of the mixed lymphocyte reaction (MLR), tritiated thymidine uptake; format: cell-based; set-up: key: Data are reported as “+” or “−” at a given concentration (in μM); Data are reported as “+” or “−” at a given concentration (in μM)
Description: Assay to Determine Inhibition the Mixed Lymphocyte Reaction
As discussed above, ICAM-1 is necessary for effective cellular interactions during an immune response mediated through LFA-1-dependent cell adhesion. When lymphocytes from two unrelated individuals are cultured together, blast transformation and cell proliferation of the lymphocytes are observed. This response is known as a mixed lymphocyte reaction (MLR) and is analogous to the response of lymphocytes to the 10 addition of antigens or mitogens (Immunology: The Science of Self-Nonself Discrimination; Klein, J., Ed.; John Wiley & Sons: NY, 1982, pp 453-458).
This assay protocol is used to determine the effect of a test compound on the human MLR.
Description of Assay Protocol:
Peripheral blood is obtained from normal, healthy donors by venipuncture. The blood is collected in heparinized tubes and diluted 1:1 at room temperature with Puck's G (GIBCO) balanced salt solution (BSS). The blood mixture (20 mL) is layered over 15 mL of a Ficoll/Hypaque density gradient (Pharmacia, density=1.078, room temperature) and centrifuged at 1000·g for 20 minutes. The interface is then collected and washed 3 times in Puck's G. The cells are counted on a hemocytometer and resuspended in RPMI 1640 culture medium (GIBCO) containing 0.5% of gentamicin, 1 mM L-glutamine (GICO) and 5% heat inactivated (56° C., 30 min) human AB sera (Flow Laboratories) (hereafter referred to as RPMI-culture medium).
Stimulator cells (cells that have been treated with irradiation so that they are unable to proliferate) from a separate donor are cultured with the responder cells at the same concentration. Test compound is added to wells at various concentrations. The total volume per culture is 0.2 mL. Controls include compound vehicle alone (DMSO), responder cells alone, and stimulator cells alone. The culture plates are incubated at 37° C. in a 5% CO2-humidified air atmosphere for 5 days.
The wells are pulsed with 0.5 μCi of tritiated thymidine (^3HT) (New England Nuclear) for the last 18 h of culture. In some cases a two-way MLR can be performed. The protocol is the same except that the second donor's cells are not inactivated by irradiation.
The cells are harvested onto glass fiber filters using an automated multiple sample harvester (Skatron, Norway), and rinsed with water and methanol. The filters are oven dried and counted in Aquasol in a Beckman (LS-3801) liquid scintillation counter.
Data are reported as “+” or “−” at a given concentration (in μM).

[6] = system: SKW3 cells
[7] = No inh = no inhibition observed up to highest dose, exact quantification not always possible due to intrinsic toxicity
[8] = values marked e approximated from incomplete dose-response curve
[9] = SKW3, values marked c: no inhibition observed up to highest dose
[10] = values marked c: no inhibition observed up to highest dose

T1 sequence (P20701 26-1170): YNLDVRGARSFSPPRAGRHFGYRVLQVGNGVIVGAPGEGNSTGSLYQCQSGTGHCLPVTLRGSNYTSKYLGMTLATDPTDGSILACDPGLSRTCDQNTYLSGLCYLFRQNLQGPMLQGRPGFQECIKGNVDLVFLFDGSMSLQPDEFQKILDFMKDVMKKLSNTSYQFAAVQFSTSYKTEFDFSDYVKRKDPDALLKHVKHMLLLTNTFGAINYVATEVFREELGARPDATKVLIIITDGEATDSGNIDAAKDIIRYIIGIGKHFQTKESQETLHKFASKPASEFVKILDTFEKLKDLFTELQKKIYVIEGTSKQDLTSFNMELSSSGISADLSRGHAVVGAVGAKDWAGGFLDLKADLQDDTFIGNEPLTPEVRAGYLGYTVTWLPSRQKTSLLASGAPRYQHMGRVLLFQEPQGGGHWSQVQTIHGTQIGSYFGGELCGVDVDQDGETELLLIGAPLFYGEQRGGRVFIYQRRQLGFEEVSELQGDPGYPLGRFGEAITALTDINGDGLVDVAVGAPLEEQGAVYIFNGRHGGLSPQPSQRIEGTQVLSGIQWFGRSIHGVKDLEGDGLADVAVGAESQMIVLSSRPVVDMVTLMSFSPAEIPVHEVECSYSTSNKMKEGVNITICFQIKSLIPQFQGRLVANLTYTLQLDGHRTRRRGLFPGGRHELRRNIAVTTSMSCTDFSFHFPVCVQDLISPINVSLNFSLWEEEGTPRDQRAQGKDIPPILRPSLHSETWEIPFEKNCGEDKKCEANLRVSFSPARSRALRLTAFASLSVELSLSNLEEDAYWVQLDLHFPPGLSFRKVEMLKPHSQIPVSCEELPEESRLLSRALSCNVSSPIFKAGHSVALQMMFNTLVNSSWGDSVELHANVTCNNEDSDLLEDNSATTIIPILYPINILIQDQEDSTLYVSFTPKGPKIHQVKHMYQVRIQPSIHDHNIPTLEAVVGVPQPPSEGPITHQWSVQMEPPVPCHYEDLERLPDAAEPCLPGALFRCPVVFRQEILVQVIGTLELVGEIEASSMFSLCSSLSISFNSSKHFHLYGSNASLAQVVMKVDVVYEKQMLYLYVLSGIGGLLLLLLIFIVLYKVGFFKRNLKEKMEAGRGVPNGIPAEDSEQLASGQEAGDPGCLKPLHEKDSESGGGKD
T1 sequence (P05107 23-769): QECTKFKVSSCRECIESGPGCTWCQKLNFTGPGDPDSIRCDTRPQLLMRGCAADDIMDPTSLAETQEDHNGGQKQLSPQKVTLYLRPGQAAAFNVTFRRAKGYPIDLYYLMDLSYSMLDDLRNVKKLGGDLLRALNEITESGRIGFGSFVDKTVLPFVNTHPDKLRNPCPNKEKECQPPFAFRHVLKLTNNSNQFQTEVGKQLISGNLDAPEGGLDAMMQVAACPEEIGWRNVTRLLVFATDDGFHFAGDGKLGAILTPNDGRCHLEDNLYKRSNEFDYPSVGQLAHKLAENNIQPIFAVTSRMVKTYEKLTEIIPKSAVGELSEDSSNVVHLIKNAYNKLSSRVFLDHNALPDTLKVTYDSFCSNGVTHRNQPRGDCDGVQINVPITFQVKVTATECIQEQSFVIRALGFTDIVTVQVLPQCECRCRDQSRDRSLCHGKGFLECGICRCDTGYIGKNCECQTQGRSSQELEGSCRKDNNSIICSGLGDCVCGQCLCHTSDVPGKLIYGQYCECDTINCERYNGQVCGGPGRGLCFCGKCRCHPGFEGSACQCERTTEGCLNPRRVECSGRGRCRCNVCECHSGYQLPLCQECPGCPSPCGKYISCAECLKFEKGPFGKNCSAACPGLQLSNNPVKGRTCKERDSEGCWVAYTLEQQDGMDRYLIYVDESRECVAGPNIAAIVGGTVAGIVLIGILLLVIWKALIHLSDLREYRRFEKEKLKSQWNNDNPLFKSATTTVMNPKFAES

melting point [°C]	SMILES	Kd [1] [nM]	IC50 ([2]; SKW3) [nM]	Assay to Detect SKW3 Cells Binding to FIBRONECTIN IC50 [3, 7]	IC50 ([4]; Homo sapiens) [nM]	Mixed Lymphocyte Reaction MLR +/− ([5]; at 25 μM)	Cellular Toxicity Assay MTT LD50 [6] [µM]	Mixed Lymphocyte Reaction MLR +/− ([5]; at 50 μM)	Kd [1, 8] [nM]	IC50 [2, 9] [nM]	Assay to Detect SKW3 Cells Binding to FIBRONECTIN IC50 [3, 10]	IC50 [3, 10] [nM]	IC50 ([3]; Homo sapiens, SKW3, values marked c: no inhibition observed up to highest dose) [nM]	IC50 ([3]; Homo sapiens, SKW3, No inh = no inhibition observed up to highest dose, exact quantification not always possible due to intrinsic toxicity) [nM]	IC50 [4] [nM]
–	C[C@@]1(Cc2ccc(Br)cc2)C(=O)N(c2cc(Cl)cc(Cl)c2)C(=O)N1CCO [Example 225]	630	3000 to 4000	No inh^c	200	+(25)	50 to 100	–	–	–	–	–	–	–	–
–	C[C@@]1(Cc2ccc(Br)cc2)C(=O)N(c2cc(Cl)cc(Cl)c2)C(=O)N1CCCC(=O)O [Example 227]	180	25000	No inh^c	3100	–	200 to 400	+(50)	–	–	–	–	–	–	–
–	C[C@H]1C(=O)N(c2cc(Cl)cc(Cl)c2)C(=O)[C@]1(C)Cc1ccc(Br)cc1 [Example 72]	–	–	–	1400	+(25)	>363	–	60	20000 to 40000	No inh^c	–	–	–	–
–	CCCN1C(=O)N(c2cc(Cl)cc(Cl)c2)C(=O)[C@]1(C)Cc1ccc(Br)cc1 [Example 276]	1110	10000	No inh^c	500	+(25)	375	–	–	–	–	–	–	–	–
–	C[C@@]1(Cc2ccc(Br)cc2)C(=O)N(c2cc(Cl)cc(Cl)c2)C(=O)N1Cc1cccc(C(=O)O)c1 [Example 229]	300	6000 to 13000	No inh^c	3100	–	50 to 100	+(50)	–	–	–	–	–	–	–
133 to 134	CC1(Cc2ccc(SC(F)(F)F)cc2)NC(=O)N(c2cc(Cl)cc(Cl)c2)C1=O (centres unmarked) [Example 60]	–	–	–	–	–	–	–	230	–	–	–	–	–	–
–	C[C@@]1(Cc2ccc(Br)cc2)C(=O)N(c2cc(Cl)cc(Cl)c2)C(=O)N1CCCCCC(=O)O [Example 226]	70	3000 to 6000	No inh^c	1600	+(25)	100	–	–	–	–	–	–	–	–
–	CN1C(=O)N(c2cc(C(F)(F)F)cc(C(F)(F)F)c2)C(=O)C1(C)Cc1ccccc1 (centres unmarked) [Example 83]	–	–	–	6000	–	250 to 500	+(50)	300	13000 to 25000	–	> 200000	–	–	–
–	CN1C(=O)N(c2cc(Cl)cc(Cl)c2)C(=O)[C@@]1(C)Cc1ccc(-c2ccccc2)cc1 [Example 182]	–	–	–	20	+(25)	200 to 400	–	50	3000 to 6000	No inh^c	–	–	–	–
–	CC1(Cc2ccc(Br)cc2)C(=O)N(c2cc(Cl)cc(Cl)c2)C(=O)N1C1CC1 (centres unmarked) [Example 169]	–	–	–	1500	+(25)	160 to 230	–	50	12000 to 25000	No inh^c	–	–	–	–
–	CN1C(=O)N(c2cc(Cl)cc(Cl)c2)C(=O)C1Cc1ccc(Br)cc1 (centres unmarked) [Example 92]	–	–	–	3100	+(25)	63 to 125	–	120	13000 to 25000	No inh^c	–	–	–	–
–	CN1C(=O)N(c2cc(Cl)c(Cl)c(Cl)c2)C(=O)[C@@]1(C)Cc1ccc(Br)cc1 [Example 123]	–	–	–	600	–	50 to 100	+(50)	100	12000 to 25000	–	–	> 25000	–	–
–	CN1C(=O)N(c2cc(Cl)cc(Cl)c2)C(=O)C1(C)Cc1ccc([N+](=O)[O-])cc1 (centres unmarked) [Example 157]	–	–	–	400	+(25)	>390	–	37	5000 to 10000	No inh^c	–	–	–	–
–	CCCN1C(=O)N(c2cc(Cl)cc(Cl)c2)C(=O)[C@@]1(C)Cc1ccc(Br)cc1 [Example 98]	–	–	–	3000	–	>340	+(50)	55	5000 to 10000	No inh^c	–	–	–	–
–	CN1C(=O)N(c2cc(Cl)cc(Cl)c2)C(=O)C1(C)Cc1ccc(C#N)cc1 (centres unmarked) [Example 151]	–	–	–	200	+(25)	>410	–	46	5000 to 10000	No inh^c	–	–	–	–
–	C[C@]1(Cc2ccc(C(=O)c3ccccc3)cc2)NC(=O)N(c2cc(Cl)cc(Cl)c2)C1=O [Example 215]	200	50000 to 100000	–	–	–	100 to 200	+(50)	–	–	–	–	–	> 100000	3100
–	C[C@]1(Cc2ccc([N+](=O)[O-])cc2)NC(=O)N(c2cc(Cl)cc(Cl)c2)C1=O [Example 44]	–	–	–	300	–	63 to 125	–	420	6000 to 12000	No inh^c	–	–	–	–
–	C[C@@]1(Cc2ccc(Br)cc2)C(=O)N(c2cc(Cl)cc(Cl)c2)C(=O)N1Cc1ccccc1O [Example 247]	230	1500 to 3000	No inh^c	2300	–	40 to 80	–	–	–	–	–	–	–	–
–	CN1C(=O)N(c2cc(Cl)cc(Cl)c2)C(=O)C1(C)Cc1ccc(F)cc1 (centres unmarked) [Example 146]	–	–	–	400	–	100	+(50)	130	13000 to 25000	No inh^c	–	–	–	–
–	C[C@@]1(Cc2ccc(Br)cc2)C(=O)N(c2cc(Cl)cc(Cl)c2)C(=O)N1C(=O)[C@H]1CCCN1 [Example 235]	330	9000	No inh^c	1600	–	100 to 200	–	–	–	–	–	–	–	–
–	CN1C(=O)N(c2cc(Cl)cc(Cl)c2)C(=O)[C@@]1(C)Cc1ccc(C#N)cc1 [Example 127]	–	–	–	100	–	125 to 250	–	50	800 to 1600	No inh^c	–	–	–	–
–	CN1C(=O)N(c2cc(Cl)cc(Cl)c2)C(=O)C1(C)Cc1cc(Br)cc(Br)c1 (centres unmarked) [Example 164]	–	–	–	25000	–	100 to 200	–	280	> 100000	No inh^c	–	–	–	–
–	CN1C(=O)N(c2cc(Cl)cc(Cl)c2)C(=O)C1(C)Cc1ccc(Br)cc1O (centres unmarked) [Example 248]	370	9000 to 18000	No inh^c	700	–	50 to 100	–	–	–	–	–	–	–	–
